Assay [1] is described as follows: Displacement of [3H]DTG from sigma2 receptor in […]. The note with it: pc-12. The format is cell-based. (In a radioligand displacement assay an active substance lowers the binding of a labelled ligand.)
The target of a further assay is D(2) dopamine receptor (Homo sapiens, UniProt P14416). Briefly: Inhibition of D2 dopamine receptor.
Assay [2] has as its target Sodium-dependent serotonin transporter (Homo sapiens, UniProt P31645). As to the kind of experiment: Inhibition of SERT.
Assay [3] concerns the target T1, Sodium-dependent dopamine transporter (Homo sapiens, UniProt Q01959). Briefly: Inhibition of DAT at 10 uM.
Assay [4] is described as follows: Inhibition of NMDA receptor PCP binding site at 10 uM.
The target of assay [5] is Sodium-dependent noradrenaline transporter (Homo sapiens) (UniProt P23975). As to the kind of experiment: Inhibition of NET at 10 uM.
Chain of Sodium-dependent noradrenaline transporter (Homo sapiens) (P23975 whole entry): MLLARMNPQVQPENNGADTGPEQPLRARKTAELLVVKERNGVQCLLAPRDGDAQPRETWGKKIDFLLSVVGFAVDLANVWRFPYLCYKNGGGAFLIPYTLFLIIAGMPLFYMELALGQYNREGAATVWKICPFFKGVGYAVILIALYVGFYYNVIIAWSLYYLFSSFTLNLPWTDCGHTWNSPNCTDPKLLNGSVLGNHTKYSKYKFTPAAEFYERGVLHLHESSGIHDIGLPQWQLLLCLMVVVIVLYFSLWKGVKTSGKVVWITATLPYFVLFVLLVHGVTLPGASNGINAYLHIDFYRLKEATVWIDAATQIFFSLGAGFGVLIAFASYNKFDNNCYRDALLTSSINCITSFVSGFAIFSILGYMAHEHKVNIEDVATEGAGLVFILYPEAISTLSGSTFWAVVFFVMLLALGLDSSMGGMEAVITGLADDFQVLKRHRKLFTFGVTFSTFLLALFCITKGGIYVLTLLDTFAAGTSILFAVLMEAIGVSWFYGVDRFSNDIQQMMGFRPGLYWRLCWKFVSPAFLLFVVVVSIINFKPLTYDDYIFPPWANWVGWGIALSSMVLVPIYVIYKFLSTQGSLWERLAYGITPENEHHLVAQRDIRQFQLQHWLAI
Assay [6] addresses T2, Histamine H3 receptor (Homo sapiens, UniProt Q9Y5N1). Briefly: Inhibition of H3 receptor at 10 uM.
The next assay relates to PC-12. Briefly: Displacement of [3H]DTG from sigma2 receptor in […] at 10 uM. The format is cell-based.
The target of assay [7] is Sigma non-opioid intracellular receptor 1 (Rattus norvegicus, UniProt Q9R0C9). As to the kind of experiment: Displacement of [3H](+)-pentazocine from sigma1 receptor in rat brain homogenate. The format is tissue-based.
Chain of Sigma non-opioid intracellular receptor 1 (Q9R0C9 whole entry): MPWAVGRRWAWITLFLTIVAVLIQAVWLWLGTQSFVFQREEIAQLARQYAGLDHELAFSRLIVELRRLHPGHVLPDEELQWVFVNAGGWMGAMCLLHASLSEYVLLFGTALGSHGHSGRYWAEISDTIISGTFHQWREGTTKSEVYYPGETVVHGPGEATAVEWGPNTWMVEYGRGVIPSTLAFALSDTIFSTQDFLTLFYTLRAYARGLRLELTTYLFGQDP
The next assay has as its target D(1B) dopamine receptor (Homo sapiens, UniProt P21918). Briefly: Inhibition of D5 dopamine receptor at 10 uM.
The target of assay [8] is T2, Histamine H3 receptor. Briefly: Inhibition of H3 receptor.
Assay [9] concerns the target T1, Sodium-dependent dopamine transporter. Briefly: Inhibition of DAT.

T2 sequence (Q9Y5N1 whole entry): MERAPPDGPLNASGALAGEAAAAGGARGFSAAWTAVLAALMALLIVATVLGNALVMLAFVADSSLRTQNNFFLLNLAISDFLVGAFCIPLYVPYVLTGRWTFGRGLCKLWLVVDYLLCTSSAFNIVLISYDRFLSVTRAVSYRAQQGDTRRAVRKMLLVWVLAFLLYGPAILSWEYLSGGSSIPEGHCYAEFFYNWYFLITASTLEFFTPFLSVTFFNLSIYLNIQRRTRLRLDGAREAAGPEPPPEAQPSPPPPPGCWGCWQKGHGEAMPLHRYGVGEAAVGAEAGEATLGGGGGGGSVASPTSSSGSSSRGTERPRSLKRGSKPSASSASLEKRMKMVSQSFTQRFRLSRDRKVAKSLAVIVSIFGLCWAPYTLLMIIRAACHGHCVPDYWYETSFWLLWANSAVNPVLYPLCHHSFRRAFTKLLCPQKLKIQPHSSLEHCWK
Chain of Sodium-dependent serotonin transporter (P31645 whole entry): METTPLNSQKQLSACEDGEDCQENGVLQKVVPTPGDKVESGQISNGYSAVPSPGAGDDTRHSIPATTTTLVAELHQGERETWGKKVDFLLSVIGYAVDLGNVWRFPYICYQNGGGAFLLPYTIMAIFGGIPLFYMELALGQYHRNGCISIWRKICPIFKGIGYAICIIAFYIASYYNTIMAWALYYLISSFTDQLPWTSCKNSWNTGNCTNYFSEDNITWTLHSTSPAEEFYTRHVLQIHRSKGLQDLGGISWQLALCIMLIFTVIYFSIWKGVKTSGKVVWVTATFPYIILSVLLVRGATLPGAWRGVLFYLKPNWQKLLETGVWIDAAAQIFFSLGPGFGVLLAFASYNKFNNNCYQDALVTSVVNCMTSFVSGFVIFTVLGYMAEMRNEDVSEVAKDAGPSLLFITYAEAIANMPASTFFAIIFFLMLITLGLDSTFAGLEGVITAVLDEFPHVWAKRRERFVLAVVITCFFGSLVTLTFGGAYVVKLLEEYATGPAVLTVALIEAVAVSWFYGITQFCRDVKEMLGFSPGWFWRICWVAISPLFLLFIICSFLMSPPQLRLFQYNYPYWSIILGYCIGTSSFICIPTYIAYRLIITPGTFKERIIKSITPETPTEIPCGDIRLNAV
Chain of D(2) dopamine receptor (P14416 whole entry): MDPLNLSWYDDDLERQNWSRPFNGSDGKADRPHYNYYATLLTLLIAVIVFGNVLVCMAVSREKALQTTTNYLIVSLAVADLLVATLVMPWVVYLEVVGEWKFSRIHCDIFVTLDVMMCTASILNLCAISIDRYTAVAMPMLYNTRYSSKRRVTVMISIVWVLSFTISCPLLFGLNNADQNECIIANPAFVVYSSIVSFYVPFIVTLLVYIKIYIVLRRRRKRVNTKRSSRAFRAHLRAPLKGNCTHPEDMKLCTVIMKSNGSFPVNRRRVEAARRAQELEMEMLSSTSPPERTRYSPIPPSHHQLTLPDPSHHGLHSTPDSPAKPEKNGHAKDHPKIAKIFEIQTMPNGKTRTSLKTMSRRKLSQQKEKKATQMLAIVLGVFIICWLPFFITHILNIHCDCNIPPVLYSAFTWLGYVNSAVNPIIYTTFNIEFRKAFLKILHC
T1 sequence (Q01959 whole entry): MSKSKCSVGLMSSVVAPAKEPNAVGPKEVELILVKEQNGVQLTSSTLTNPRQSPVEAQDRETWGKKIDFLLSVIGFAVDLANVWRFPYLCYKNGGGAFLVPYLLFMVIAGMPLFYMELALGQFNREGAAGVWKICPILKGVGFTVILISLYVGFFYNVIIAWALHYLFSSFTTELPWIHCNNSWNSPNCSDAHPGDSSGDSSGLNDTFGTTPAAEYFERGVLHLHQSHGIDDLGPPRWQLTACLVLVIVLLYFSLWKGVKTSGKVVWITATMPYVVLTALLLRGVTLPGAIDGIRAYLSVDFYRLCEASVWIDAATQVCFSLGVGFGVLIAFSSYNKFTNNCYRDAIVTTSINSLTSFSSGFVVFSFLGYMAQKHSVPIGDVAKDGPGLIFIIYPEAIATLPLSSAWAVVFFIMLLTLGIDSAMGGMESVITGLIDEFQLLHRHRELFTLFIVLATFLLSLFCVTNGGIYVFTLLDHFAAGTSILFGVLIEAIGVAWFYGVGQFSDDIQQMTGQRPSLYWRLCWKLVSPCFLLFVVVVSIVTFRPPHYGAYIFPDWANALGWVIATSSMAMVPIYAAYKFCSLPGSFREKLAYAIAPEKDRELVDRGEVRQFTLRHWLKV
Chain of D(1B) dopamine receptor (P21918 whole entry): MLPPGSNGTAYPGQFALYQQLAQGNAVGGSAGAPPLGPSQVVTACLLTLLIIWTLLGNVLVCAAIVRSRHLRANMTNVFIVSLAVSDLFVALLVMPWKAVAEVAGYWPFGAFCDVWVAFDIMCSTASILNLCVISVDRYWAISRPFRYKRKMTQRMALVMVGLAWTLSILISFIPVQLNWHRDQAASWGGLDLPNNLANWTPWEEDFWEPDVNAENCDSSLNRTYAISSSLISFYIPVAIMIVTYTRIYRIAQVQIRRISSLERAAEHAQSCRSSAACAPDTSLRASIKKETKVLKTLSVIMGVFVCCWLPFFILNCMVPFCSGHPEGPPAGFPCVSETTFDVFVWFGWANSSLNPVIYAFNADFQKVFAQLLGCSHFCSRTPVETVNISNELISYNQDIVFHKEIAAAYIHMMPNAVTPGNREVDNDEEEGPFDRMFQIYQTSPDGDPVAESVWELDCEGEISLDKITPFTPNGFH

What is called Ki is a measure of affinity in units of concentration, obtained from inhibition or displacement. High values mean lower affinity, low ones higher affinity. A word on the inhibition: it is the relative decrease from the control value, in per cent. A higher inhibition goes with a response far below the control. Regarding `c1ccc(CCN2CCCC2)nc1`, the Ki was 3520 nM in [1], greater than 10000 nM on D(2) dopamine receptor and greater than 10000 nM in assay [2]. The inhibition in assay [3], in [4] and in [5] was less than 50% throughout.
Consider `c1ccc(CN2C3CCC2CC3)cc1`, for which the results for the Ki (in [1]; at D(2) dopamine receptor; in [2]) were 399 nM, greater than 10000 nM and greater than 10000 nM, respectively. Also, the inhibition in assay [3], in [4] and in assay [5] was less than 50% each time.
Turning to `Fc1cccc(CN2C3CCC2CC3)c1`, the Ki is 251 nM in [1], greater than 10000 nM at D(2) dopamine receptor and greater than 10000 nM in assay [2]. In addition, the inhibition (in assay [3]; at Histamine H3 receptor [6]; in assay [4]; in assay [5]) was less than 50% each time.
Turning to `c1cncc(CN2CCCC2)c1`, the Ki in [2] is greater than 10000 nM. The inhibition (in the assay with PC-12; in assay [3]; in [4]; in assay [5]) was less than 50% in each case.
Take `c1ccc(CCN2C3CCC2CC3)nc1`: the Ki in assay [7] is 3830 nM; in assay [1] it was 517 nM; on D(2) dopamine receptor it was greater than 10000 nM. For the same compound, the inhibition (in [3]; on Histamine H3 receptor [6]; in assay [4]; in assay [5]) was less than 50% each time.
For `c1ccc(CN2CCCC2)cc1`, the Ki in assay [1] is 852 nM; in assay [2], greater than 10000 nM. Further, the inhibition (on D(1B) dopamine receptor; in assay [3]; in [4]; in assay [5]) was less than 50% throughout.
`c1ccc(CCN2C3CCC2CC3)cc1`: the Ki in assay [7] is 276 nM; in assay [1], 131 nM; on D(2) dopamine receptor it was greater than 1000 nM; at Histamine H3 receptor [8], 7770 nM. The inhibition in assay [3], in assay [4] and in assay [5] was less than 50% throughout.
As for `c1cncc(CN2C3CCC2CC3)c1`, the Ki in assay [1] is 6350 nM; at D(2) dopamine receptor, greater than 10000 nM. For the same compound, the inhibition (in assay [3]; against Histamine H3 receptor [6]; in [4]; in [5]) was less than 50% throughout.
Regarding `Fc1cccc(CCCN2CCCC2)c1`, the Ki in assay [1] amounted to 39 nM; at D(2) dopamine receptor it was 9910 nM; in assay [9] it was 3310 nM; in [2] it was 4360 nM. Besides, the inhibition in assay [4] and in assay [5] was less than 50% each time.
For `Fc1cccc(CN2CCCC2)c1`, the Ki in [1] is 1610 nM; in assay [2], greater than 10000 nM. The inhibition in [3], in assay [4] and in assay [5] was less than 50% in each case.
In the case of `Fc1cccc(CCN2C3CCC2CC3)c1`, the Ki in assay [7] was 103 nM; in assay [1], 29.5 nM; on D(2) dopamine receptor, greater than 10000 nM. The inhibition (in assay [3]; against Histamine H3 receptor [6]; in assay [4]; in assay [5]) was less than 50% each time.
As to `Fc1cccc(CCN2CCCC2)c1`, the Ki was 246 nM in [1], greater than 10000 nM at D(2) dopamine receptor, 2310 nM in assay [9] and greater than 10000 nM in assay [2]. The inhibition in assay [4] and in assay [5] was less than 50% throughout.
In the case of `COc1ccc(CN2C3CCC2CC3)cc1OC`, the Ki in assay [1] was 43.1 nM; at D(2) dopamine receptor it was greater than 10000 nM; in assay [2], greater than 10000 nM. Moreover, the inhibition (in [3]; against Histamine H3 receptor [6]; in assay [4]; in assay [5]) was less than 50% in each case.
As to `Fc1cccc(CCCN2C3CCC2CC3)c1`, the Ki is 120 nM in assay [7], 11.9 nM in [1] and greater than 10000 nM at D(2) dopamine receptor. Further, the inhibition (in [3]; on Histamine H3 receptor [6]; in [4]; in assay [5]) was less than 50% throughout.
In the case of `c1ccc(CCN2CCCC2)cc1`, the inhibition constant Ki in assay [1] is 658 nM; in assay [9], 2730 nM; in assay [2], greater than 10000 nM. Moreover, the inhibition in assay [4] and in assay [5] was less than 50% each time.
As for `COc1ccc(CN2CCCC2)cc1OC`, the Ki is 661 nM in assay [1] and greater than 10000 nM in [2]. The inhibition in [3], in assay [4] and in assay [5] was less than 50% in each case.

For the origin of these results see ChEMBL document CHEMBL2029272, “7-Azabicyclo[2.2.1]heptane as a scaffold for the development of selective sigma-2 (σ2) receptor ligands” (Bioorg Med Chem Lett, 2012).
